The numbers were not newly measured in article PMC8241576 (Biophysical Journal, 2021), which cites them from elsewhere.

The conditions of this data set: in water at 25°C.

Structures are written as SMILES.

In the case of `Cl.N=c1ccc2c(-c3ccccc3C(=O)O)c3ccc(N)cc3oc-2c1` [Rh110, Rhodamine 110], the diffusion coefficient is listed as 4.4 × 10^−6 cm^2 s^−1 and the “hydrodynamic radius of free dye” value is on record as around 0.56 nm.
